In patent US10377744B2, “Potent soluble epdxide hydrolase inhibitors” (Eicosis, LLC, priority 2014, dated 2019):
Values after ≈ are worked out from the molar mass of the structure shown. Read-outs that look alike come from different tables or passages of the source. Blank lines part the entries; values can stand above or below the compound they belong to.

What was measured:
[1] = Experimental logP by HPLC method; format: physicochemical; conditions: for chromatographic logP: read-out: Exp. logP
[2] = tested on: PTZ induced seizure; assay: Pentylenetetrazol (PTZ) induced seizure model; format: in vivo, mice
Description: To investigate the central nervous system penetration efficacy of sEH inhibitors a standard acute test involving the administration of pro-convulsant pentylenetetrazol (PTZ) was employed. In the subcutaneous pentylenetetrazol (PTZ) test 80 mg/kg of PTZ is administered by subcutaneous route, time to onset of first clonic seizure (clonus), time to tonic hind limb extension and lethality (tonus) are monitored for a duration of 30 min. Inhibitors of sEH were completely dissolved using PEG400 as a vehicle to give clear solutions. Inhibitors or vehicle were administered by intraperitoneal route 1 h prior to pro-convulsant at a single discriminating dose based on earlier data. This dose of PTZ produces 100% lethality within 30 min upon administration.
PTZ is a chemical which induces seizures. This assay is considered highly translatable from mice to humans.

[3] = pH titration of solubility; format: physicochemical; conditions: FIG. 9
[4] = Solubility in Acetate Buffer at pH 3; format: physicochemical; conditions: for solubility: aqueous buffer, read-out: Sol (ug/mL) at pH3
[5] = Solubility in Phosphate Buffer at pH 7.4; format: physicochemical; conditions: for solubility compared to sEH inhibitors with hydrophobic alkyl group at R7: in words
[6] = target: T1, human sEH (Homo sapiens (Human), UniProt P34913); assay: koff measurement, enzymatic t1/2 (residence time); conditions: time for half of the drug to dissociate from recombinant affinity purified human sEH
[7] = target: T1, human sEH; assay: FRET-displacement assay (Ki); format: binding; conditions: for Ki: affinity purified recombinant human sEH, FRET-displacement
[8] = HPLC method calibrated with eLogP of 4 selected inhibitors determined by shake-flask method

T1 sequence (P34913 whole entry): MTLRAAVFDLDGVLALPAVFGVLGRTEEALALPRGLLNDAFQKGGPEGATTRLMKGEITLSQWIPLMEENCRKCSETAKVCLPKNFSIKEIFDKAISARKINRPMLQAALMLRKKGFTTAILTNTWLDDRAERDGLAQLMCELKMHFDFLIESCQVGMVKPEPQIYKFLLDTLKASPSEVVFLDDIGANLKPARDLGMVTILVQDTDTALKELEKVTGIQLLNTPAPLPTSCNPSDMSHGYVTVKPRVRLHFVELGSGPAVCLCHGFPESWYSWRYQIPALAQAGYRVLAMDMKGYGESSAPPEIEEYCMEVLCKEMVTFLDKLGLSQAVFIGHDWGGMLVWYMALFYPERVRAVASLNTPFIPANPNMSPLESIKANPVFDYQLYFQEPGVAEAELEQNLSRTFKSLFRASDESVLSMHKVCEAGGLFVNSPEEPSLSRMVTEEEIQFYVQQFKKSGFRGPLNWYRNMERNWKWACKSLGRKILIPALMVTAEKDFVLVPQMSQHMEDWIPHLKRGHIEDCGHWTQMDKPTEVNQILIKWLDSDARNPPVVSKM

chromatographic logP [1, 8]: 3.93
Compound: O=C(Nc1ccc(OC(F)(F)F)c(F)c1)NC1CCN(C(=O)N2CCOCC2)CC1 [Compound 43, 1-(3-fluoro-4-(trifluoromethoxy)phenyl)-3-(1-(morpholine-4-carbonyl)piperidin-4-yl)urea]

chromatographic logP [1, 8]: 8.07
Compound: CC[C@H](C)C(=O)N1CCC(NC(=O)Nc2ccc(OC(F)(F)F)c(Br)c2)CC1 [Compound 45]

Ki [7]: 1.95 ± 0.3 nM
Compound: O=C(Nc1ccc(OC(F)(F)F)c(F)c1)Nc1ccc(OC(F)(F)F)c(F)c1 [Compound 38]

chromatographic logP [1, 8]: 3.84
Compound: O=C(Nc1ccc(C(F)(F)F)c(F)c1)NC1CCN(C(=O)C2CCCOC2)CC1 (stereo not shown) [Compound 35, 1-(3-fluoro-4-(trifluoromethyl)phenyl)-3-(1-(tetrahydro-2H-pyran-3-carbonyl)piperidin-4-yl)urea]

chromatographic logP [1, 8]: 3.26
Compound: O=C(Nc1ccc(C(F)(F)F)cc1)NC1CCN(C(=O)c2cc[nH]c2)CC1 [Compound 16, 1-(1-(1H-pyrrole-3-carbonyl)piperidin-4-yl)-3-(4-(trifluoromethyl)phenyl)urea]

solubility ([4]; Acetate Buffer at pH 3): 522 µg/mL (≈ 1200 µM)
solubility compared to sEH inhibitors with hydrophobic alkyl group at R7 [5]: remarkably enhance the solubility
Compound: O=C(Nc1ccc(OC(F)(F)F)c(F)c1)NC1CCN(C(=O)C2CCCOC2)CC1 (stereo not shown) [Compound 27]
solubility at pH 3 compared to APAU ([4]; pH 3, in words): much better than the most soluble 1,3-disubstituted urea sEH inhibitors

chromatographic logP [1, 8]: 3.41
Compound: O=C(Nc1ccc(C(F)(F)F)c(F)c1)NC1CCN(C(=O)[C@@H]2CCOC2)CC1 [Compound 33, (R)-1-(3-fluoro-4-(trifluoromethyl)phenyl)-3-(1-(tetrahydrofuran-3-carbonyl)piperidin-4-yl)urea]

Ki [7]: 10.1 ± 1.8 nM
Compound: O=C(Nc1ccc(OC(F)(F)F)c(F)c1)NC1CCN(C(=O)N2CCC(NC(=O)Nc3ccc(OC(F)(F)F)c(F)c3)CC2)CC1 [Compound 39]

chromatographic logP [1, 8]: 9.02
Compound: CC[C@H](C)C(=O)N1CCC(NC(=O)Nc2ccc(OC(F)(F)F)c(C(F)(F)F)c2)CC1 [Compound 46, (S)-1-(1-(2-methylbutanoyl)piperidin-4-yl)-3-(4-(trifluoromethoxy)-3-(trifluoromethyl)phenyl)urea]

chromatographic logP [1, 8]: 3.94
Compound: O=C(Nc1ccc(C(F)(F)F)c(F)c1)NC1CCN(C(=O)C2CC2)CC1 [Compound 32, 1-(1-(cyclopropanecarbonyl)piperidin-4-yl)-3-(3-fluoro-4-(trifluoromethyl)phenyl)urea]

chromatographic logP [1, 8]: 5.94
Compound: CCOC(=O)N1CCC(NC(=O)Nc2ccc(OC(F)(F)F)c(F)c2)CC1 [Compound 40, ethyl 4-(3-(3-fluoro-4-(trifluoromethoxy)phenyl)ureido)piperidine-1-carboxylate]

Exp. logP [1]: 5.11
Compound: 2-(1-(cyclopropanecarbonyl)piperidin-4-yl)-N-(3-fluoro-4-(trifluoromethoxy)phenyl)acetamide [Compound 48]

chromatographic logP [1, 8]: 3.41
Compound: O=C(Nc1ccc(C(F)(F)F)cc1)NC1CCN(C(=O)C2CCCOC2)CC1 (stereo not shown) [Compound 15, 1-(1-(tetrahydro-2H-pyran-3-carbonyl)piperidin-4-yl)-3-(4-(trifluoromethyl)phenyl)urea]

chromatographic logP [1, 8]: 4.16
Compound: CC[C@H](C)C(=O)N1CCC(NC(=O)Nc2ccc(OC(F)(F)F)c(F)c2)CC1 [Compound 26, (S)-1-(3-fluoro-4-(trifluoromethoxy)phenyl)-3-(1-(2-methylbutanoyl)piperidin-4-yl)urea]

chromatographic logP [1, 8]: 5.94
Compound: O=C(Nc1ccc(OC(F)(F)F)c(F)c1)NC1CCN(C(=O)C2(C(F)(F)F)CC2)CC1 [Compound 30]

The remaining lines, values behind:

Compound: Cc1occc1C(=O)N1CCC(NC(=O)Nc2ccc(OC(F)(F)F)cc2)CC1 [Compound 6, 1-(1-(2-methylfuran-3-carbonyl)piperidin-4-yl)-3-(4-(trifluoromethoxy)phenyl)urea]
chromatographic logP [1]: 4.3

Compound: CC(C)C(=O)N1CCC(NC(=O)Nc2ccc(OC(F)(F)F)cc2)CC1 [Compound 2422, reference compound]
Exp. logP [1]: 3.56

Compound: O=C(Nc1ccc(OC(F)(F)F)c(F)c1)NC1CCN(C(=O)C2CCOCC2)CC1 [Compound 29, 1-(3-fluoro-4-(trifluoromethoxy)phenyl)-3-(1-(tetrahydro-2H-pyran-4-carbonyl)piperidin-4-yl)urea]
onset of the tonic phase of seizure ([2]; 0.3 mpk, wild type Swiss mice, subcutaneous PTZ, p<0.05): delayed onset of the tonic phase of seizure
protection from convulsions and associated lethality ([2]; mice, PTZ 80 mg/kg subcutaneous, inhibitor 1 h prior): protect mice from convulsions and associated lethality
solubility in pH titration [3]: increases dramatically when the pH is below 4
chromatographic logP [1, 8]: 3.73
solubility ([4]; Acetate Buffer at pH 3): 206 µg/mL (≈ 475 µM)
solubility compared to sEH inhibitors with hydrophobic alkyl group at R7 [5]: remarkably enhance the solubility

Compound: CC[C@H](C)C(=O)N1CCC(NC(=O)Nc2ccc(OC(F)(F)F)c(Cl)c2)CC1 [Compound 44, (S)-1-(3-chloro-4-(trifluoromethoxy)phenyl)-3-(1-(2-methylbutanoyl)piperidin-4-yl)urea]
chromatographic logP [1, 8]: 7.7
t1/2 (min) human sEH [6]: 10 min

Compound: CC[C@H](C)C(=O)N1CCC(NC(=O)Nc2ccc(OC(F)(F)F)c(OC(F)(F)F)c2)CC1 [Compound 47]
chromatographic logP [1, 8]: 10.6

Compound: CCOC(=O)N1CCC(NC(=O)Nc2ccc(C(F)(F)F)c(F)c2)CC1 [Compound 41, ethyl 4-(3-(3-fluoro-4-(trifluoromethyl)phenyl)ureido)piperidine-1-carboxylate]
chromatographic logP [1, 8]: 5.46

Compound: O=C(Nc1ccc(C(F)(F)F)c(F)c1)NC1CCN(C(=O)C2CCOCC2)CC1 [Compound 37, 1-(3-fluoro-4-(trifluoromethyl)phenyl)-3-(1-(tetrahydro-2H-pyran-4-carbonyl)piperidin-4-yl)urea]
chromatographic logP [1, 8]: 3.52

Compound: O=C(Nc1ccc(C(F)(F)F)cc1)NC1CCN(C(=O)C2=COCC2)CC1 [Compound 12, 1-(1-(4,5-dihydrofuran-3-carbonyl)piperidin-4-yl)-3-(4-(trifluoromethyl)phenyl)urea]
chromatographic logP [1, 8]: 3.37

Compound: CC(=O)N1CCC(NC(=O)NC23CC4CC(CC(C4)C2)C3)CC1 [APAU, reference compound]
chromatographic logP [1]: 1.5
solubility ([5]; aqueous buffer, Phosphate Buffer at pH 7.4): 277 µg/mL (≈ 867 µM)

Compound: O=C(Nc1ccc(OC(F)(F)F)c(F)c1)NC1CCN(C(=O)C2CC2)CC1 [Compound 24, 1-(1-(cyclopropanecarbonyl)piperidin-4-yl)-3-(3-fluoro-4-(trifluoromethoxy)phenyl)urea]
chromatographic logP [1]: 4.19

Compound: CC(C)C(=O)N1CCC(NC(=O)Nc2ccc(C(F)(F)F)cc2)CC1 [Compound 2389, reference compound]
Exp. logP [1]: 3.37

Compound: O=C(Nc1ccc(C(F)(F)F)c(F)c1)NC1CCN(C(=O)C2(C(F)(F)F)CC2)CC1 [Compound 36, 1-(3-fluoro-4-(trifluoromethyl)phenyl)-3-(1-(1-(trifluoromethyl)cycloproropane-1-carbonyl)piperidin-4-yl)urea]
Potency Enhancement ([7]; Ki of original inhibitor / Ki of meta-F substituted inhibitor): 1
chromatographic logP [1, 8]: 5.52

Compound: CCC(=O)N1CCC(NC(=O)Nc2ccc(C(F)(F)F)c(F)c2)CC1 [Compound 31, 1-(3-fluoro-4-(trifluoromethyl)phenyl)-3-(1-propionylpiperidin-4-yl)urea]
chromatographic logP [1, 8]: 3.76

Compound: O=C(Nc1ccc(OC(F)(F)F)cc1)NC1CCN(C(=O)C2CCOCC2)CC1 [Compound 1, 1-(1-(tetrahydro-2H-pyran-4-carbonyl)piperidin-4-yl)-3-(4-(trifluoromethoxy)phenyl)urea]
chromatographic logP [1]: 3.26

Compound: 1-(3-fluoro-4-(trifluoromethyl)phenyl)-3-(1-isobutyrylpiperidin-4-yl)urea [Compound 20]
Sol (ug/mL) at pH3 ([4]; Acetate Buffer at pH 3): 6 ug/mL
